The supplement of paper PMC10307832

Legend:
Experiment in all cases: relative viability (nuclei count vs DMSO), 5 days (fraction); higher = more cells survive
[1] = compound: C[C@@H](N)c1ccc(C(=O)Nc2ccnc3[nH]ccc23)cc1 + COc1cccc2cc(-c3nc([C@H]4CC[C@H](C(=O)O)CC4)n4ncnc(N)c34)[nH]c12 [OSI-027] (partner 0.5 µM)
In short: (§1)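 Five library-drug doses in √10 steps were combined with a fixed anchor-drug dose, or a single drug was given alone, by pin tool to lung cancer cell lines in 1536-well plates the day after seeding. Nuclei were stained and counted after 5 days. Relative viability is the nuclei count in treated wells over that in vehicle wells, taken as the median of duplicate plates.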

Tanzisertib + Foretinib = compound: O[C@H]1CC[C@H](Nc2ncc3nc(Nc4c(F)cc(F)cc4F)n([C@H]4CCOC4)c3n2)CC1 [Tanzisertib] + COc1cc2c(Oc3ccc(NC(=O)C4(C(=O)Nc5ccc(F)cc5)CC4)cc3F)ccnc2cc1OCCCN1CCOCC1 [Foretinib] (partner 0.25 µM)
In short: as §1

Tanzisertib + Pictilisib = compound: O[C@H]1CC[C@H](Nc2ncc3nc(Nc4c(F)cc(F)cc4F)n([C@H]4CCOC4)c3n2)CC1 [Tanzisertib] + CS(=O)(=O)N1CCN(Cc2cc3nc(-c4cccc5[nH]ncc45)nc(N4CCOCC4)c3s2)CC1 [Pictilisib] (partner 1 µM)
In short: as §1

[2] = compound: O[C@H]1CC[C@H](Nc2ncc3nc(Nc4c(F)cc(F)cc4F)n([C@H]4CCOC4)c3n2)CC1 [Tanzisertib] + CC(=O)c1c(C)c2cnc(Nc3ccc(N4CCNCC4)cn3)nc2n(C2CCCC2)c1=O [Palbociclib] (partner 0.5 µM)
In short: as §1

NCI-H1650
relative viability ([1]; first compound 0.04 µM): 0.825 | relative viability ([1]; first compound 0.1265 µM): 0.773 | relative viability ([1]; first compound 0.4 µM): 0.761 | relative viability ([1]; first compound 1.265 µM): 0.707 | relative viability ([1]; first compound 4 µM): 0.664 | relative viability (Tanzisertib + Foretinib; first compound 0.08 µM): 1.3 | relative viability (Tanzisertib + Foretinib; first compound 0.253 µM): 0.984 | relative viability (Tanzisertib + Foretinib; first compound 0.8 µM): 1.07 | relative viability (Tanzisertib + Foretinib; first compound 2.53 µM): 1.15 | relative viability (Tanzisertib + Foretinib; first compound 8 µM): 0.776 | relative viability (Tanzisertib + Pictilisib; first compound 0.08 µM): 0.656 | relative viability (Tanzisertib + Pictilisib; first compound 0.253 µM): 0.538 | relative viability (Tanzisertib + Pictilisib; first compound 0.8 µM): 0.666 | relative viability (Tanzisertib + Pictilisib; first compound 2.53 µM): 0.586 | relative viability (Tanzisertib + Pictilisib; first compound 8 µM): 0.438 | relative viability ([2]; first compound 0.08 µM): 0.297 | relative viability ([2]; first compound 0.253 µM): 0.326 | relative viability ([2]; first compound 0.8 µM): 0.404 | relative viability ([2]; first compound 2.53 µM): 0.351 | relative viability ([2]; first compound 8 µM): 0.314

NCI-H1651
relative viability ([1]; first compound 0.04 µM): 0.901 | relative viability ([1]; first compound 0.1265 µM): 0.817 | relative viability ([1]; first compound 0.4 µM): 0.888 | relative viability ([1]; first compound 1.265 µM): 1.05 | relative viability ([1]; first compound 4 µM): 0.802 | relative viability (Tanzisertib + Foretinib; first compound 0.08 µM): 0.875 | relative viability (Tanzisertib + Foretinib; first compound 0.253 µM): 0.951 | relative viability (Tanzisertib + Foretinib; first compound 0.8 µM): 0.794 | relative viability (Tanzisertib + Foretinib; first compound 2.53 µM): 0.996 | relative viability (Tanzisertib + Foretinib; first compound 8 µM): 0.539 | relative viability (Tanzisertib + Pictilisib; first compound 0.08 µM): 0.562 | relative viability (Tanzisertib + Pictilisib; first compound 0.253 µM): 0.579 | relative viability (Tanzisertib + Pictilisib; first compound 0.8 µM): 0.581 | relative viability (Tanzisertib + Pictilisib; first compound 2.53 µM): 0.6 | relative viability (Tanzisertib + Pictilisib; first compound 8 µM): 0.583 | relative viability ([2]; first compound 0.08 µM): 0.552 | relative viability ([2]; first compound 0.253 µM): 0.537 | relative viability ([2]; first compound 0.8 µM): 0.508 | relative viability ([2]; first compound 2.53 µM): 0.502 | relative viability ([2]; first compound 8 µM): 0.519

NCI-H1666
relative viability ([1]; first compound 0.04 µM): 0.917 | relative viability ([1]; first compound 0.1265 µM): 0.979 | relative viability ([1]; first compound 0.4 µM): 0.935 | relative viability ([1]; first compound 1.265 µM): 1.14 | relative viability ([1]; first compound 4 µM): 1.06 | relative viability (Tanzisertib + Foretinib; first compound 0.08 µM): 0.957 | relative viability (Tanzisertib + Foretinib; first compound 0.253 µM): 0.96 | relative viability (Tanzisertib + Foretinib; first compound 0.8 µM): 0.978 | relative viability (Tanzisertib + Foretinib; first compound 2.53 µM): 1.01 | relative viability (Tanzisertib + Foretinib; first compound 8 µM): 0.976 | relative viability (Tanzisertib + Pictilisib; first compound 0.08 µM): 0.494 | relative viability (Tanzisertib + Pictilisib; first compound 0.253 µM): 0.588 | relative viability (Tanzisertib + Pictilisib; first compound 0.8 µM): 0.414 | relative viability (Tanzisertib + Pictilisib; first compound 2.53 µM): 0.546 | relative viability (Tanzisertib + Pictilisib; first compound 8 µM): 0.439 | relative viability ([2]; first compound 0.08 µM): 0.675 | relative viability ([2]; first compound 0.253 µM): 0.729 | relative viability ([2]; first compound 0.8 µM): 0.65 | relative viability ([2]; first compound 2.53 µM): 0.688 | relative viability ([2]; first compound 8 µM): 0.639

NCI-H1734
relative viability ([1]; first compound 0.04 µM): 0.627 | relative viability ([1]; first compound 0.1265 µM): 0.611 | relative viability ([1]; first compound 0.4 µM): 0.549 | relative viability ([1]; first compound 1.265 µM): 0.315 | relative viability ([1]; first compound 4 µM): 0.563 | relative viability (Tanzisertib + Foretinib; first compound 0.08 µM): 0.923 | relative viability (Tanzisertib + Foretinib; first compound 0.253 µM): 0.781 | relative viability (Tanzisertib + Foretinib; first compound 0.8 µM): 0.845 | relative viability (Tanzisertib + Foretinib; first compound 2.53 µM): 0.87 | relative viability (Tanzisertib + Foretinib; first compound 8 µM): 0.789 | relative viability (Tanzisertib + Pictilisib; first compound 0.08 µM): 0.534 | relative viability (Tanzisertib + Pictilisib; first compound 0.253 µM): 0.405 | relative viability (Tanzisertib + Pictilisib; first compound 0.8 µM): 0.45 | relative viability (Tanzisertib + Pictilisib; first compound 2.53 µM): 0.454 | relative viability (Tanzisertib + Pictilisib; first compound 8 µM): 0.382 | relative viability ([2]; first compound 0.08 µM): 0.361 | relative viability ([2]; first compound 0.253 µM): 0.335 | relative viability ([2]; first compound 0.8 µM): 0.321 | relative viability ([2]; first compound 2.53 µM): 0.343 | relative viability ([2]; first compound 8 µM): 0.354

NCI-H1755
relative viability ([1]; first compound 0.04 µM): 0.606 | relative viability ([1]; first compound 0.1265 µM): 0.815 | relative viability ([1]; first compound 0.4 µM): 0.758 | relative viability ([1]; first compound 1.265 µM): 0.638 | relative viability ([1]; first compound 4 µM): 0.587 | relative viability (Tanzisertib + Foretinib; first compound 0.08 µM): 0.913 | relative viability (Tanzisertib + Foretinib; first compound 0.253 µM): 0.931 | relative viability (Tanzisertib + Foretinib; first compound 0.8 µM): 0.882 | relative viability (Tanzisertib + Foretinib; first compound 2.53 µM): 0.891 | relative viability (Tanzisertib + Foretinib; first compound 8 µM): 0.878 | relative viability (Tanzisertib + Pictilisib; first compound 0.08 µM): 0.47 | relative viability (Tanzisertib + Pictilisib; first compound 0.253 µM): 0.456 | relative viability (Tanzisertib + Pictilisib; first compound 0.8 µM): 0.433 | relative viability (Tanzisertib + Pictilisib; first compound 2.53 µM): 0.429 | relative viability (Tanzisertib + Pictilisib; first compound 8 µM): 0.331 | relative viability ([2]; first compound 0.08 µM): 0.434 | relative viability ([2]; first compound 0.253 µM): 0.453 | relative viability ([2]; first compound 0.8 µM): 0.433 | relative viability ([2]; first compound 2.53 µM): 0.44 | relative viability ([2]; first compound 8 µM): 0.439

NCI-H1793
relative viability ([1]; first compound 0.04 µM): 0.322 | relative viability ([1]; first compound 0.1265 µM): 0.284 | relative viability ([1]; first compound 0.4 µM): 0.254 | relative viability ([1]; first compound 4 µM): 0.355 | relative viability (Tanzisertib + Foretinib; first compound 0.08 µM): 0.659 | relative viability (Tanzisertib + Foretinib; first compound 0.253 µM): 0.74 | relative viability (Tanzisertib + Foretinib; first compound 0.8 µM): 0.734 | relative viability (Tanzisertib + Foretinib; first compound 2.53 µM): 0.569 | relative viability (Tanzisertib + Foretinib; first compound 8 µM): 0.547 | relative viability (Tanzisertib + Pictilisib; first compound 0.08 µM): 0.378 | relative viability (Tanzisertib + Pictilisib; first compound 0.253 µM): 0.234 | relative viability (Tanzisertib + Pictilisib; first compound 0.8 µM): 0.377 | relative viability (Tanzisertib + Pictilisib; first compound 2.53 µM): 0.251 | relative viability (Tanzisertib + Pictilisib; first compound 8 µM): 0.317 | relative viability ([2]; first compound 0.08 µM): 0.306 | relative viability ([2]; first compound 0.253 µM): 0.326 | relative viability ([2]; first compound 0.8 µM): 0.347 | relative viability ([2]; first compound 2.53 µM): 0.293 | relative viability ([2]; first compound 8 µM): 0.303

NCI-H1915
relative viability ([1]; first compound 0.04 µM): 0.562 | relative viability ([1]; first compound 0.1265 µM): 0.64 | relative viability ([1]; first compound 0.4 µM): 0.63 | relative viability ([1]; first compound 4 µM): 0.489 | relative viability (Tanzisertib + Foretinib; first compound 0.08 µM): 1.12 | relative viability (Tanzisertib + Foretinib; first compound 0.253 µM): 1.1 | relative viability (Tanzisertib + Foretinib; first compound 0.8 µM): 1.11 | relative viability (Tanzisertib + Foretinib; first compound 2.53 µM): 1.11 | relative viability (Tanzisertib + Foretinib; first compound 8 µM): 1.16 | relative viability (Tanzisertib + Pictilisib; first compound 0.08 µM): 1.19 | relative viability (Tanzisertib + Pictilisib; first compound 0.253 µM): 0.958 | relative viability (Tanzisertib + Pictilisib; first compound 0.8 µM): 0.946 | relative viability (Tanzisertib + Pictilisib; first compound 2.53 µM): 0.95 | relative viability (Tanzisertib + Pictilisib; first compound 8 µM): 0.732 | relative viability ([2]; first compound 0.08 µM): 0.58 | relative viability ([2]; first compound 0.253 µM): 0.514 | relative viability ([2]; first compound 0.8 µM): 0.55 | relative viability ([2]; first compound 2.53 µM): 0.506 | relative viability ([2]; first compound 8 µM): 0.476

NCI-H1944
relative viability ([1]; first compound 0.04 µM): 0.409 | relative viability ([1]; first compound 0.1265 µM): 0.368 | relative viability ([1]; first compound 0.4 µM): 0.397 | relative viability ([1]; first compound 1.265 µM): 0.26 | relative viability ([1]; first compound 4 µM): 0.384 | relative viability (Tanzisertib + Foretinib; first compound 0.08 µM): 0.957 | relative viability (Tanzisertib + Foretinib; first compound 0.253 µM): 0.936 | relative viability (Tanzisertib + Foretinib; first compound 0.8 µM): 0.855 | relative viability (Tanzisertib + Foretinib; first compound 2.53 µM): 0.928 | relative viability (Tanzisertib + Foretinib; first compound 8 µM): 0.822 | relative viability (Tanzisertib + Pictilisib; first compound 0.08 µM): 0.364 | relative viability (Tanzisertib + Pictilisib; first compound 0.253 µM): 0.344 | relative viability (Tanzisertib + Pictilisib; first compound 0.8 µM): 0.351 | relative viability (Tanzisertib + Pictilisib; first compound 2.53 µM): 0.331 | relative viability (Tanzisertib + Pictilisib; first compound 8 µM): 0.336 | relative viability ([2]; first compound 0.08 µM): 0.322 | relative viability ([2]; first compound 0.253 µM): 0.343 | relative viability ([2]; first compound 0.8 µM): 0.324 | relative viability ([2]; first compound 2.53 µM): 0.339 | relative viability ([2]; first compound 8 µM): 0.295
